Data taken from PubChem BioAssay (NCI).
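Dose response: 5 concentrations. Exposure: 48 h. Format: 96-well plates. Endpoint: linear interpolation; highest concentration if not reached. TGI marks complete inhibition of growth.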

Assays:
Assay in all cases: growth of human tumour cells (NCI), 48 h
[1] = system: TK-10 renal
[2] = system: SN12C renal
[3] = system: SK-MEL-28 melanoma
[4] = system: HOP-62 NSCLC
[5] = system: SF-295 CNS
[6] = system: SK-OV-3 ovarian
[7] = system: OVCAR-3 ovarian
[8] = system: CCRF-CEM leukemia
[9] = system: NCI-H460 lung
[10] = system: SK-MEL-2 melanoma
[11] = system: COLO 205 colon
[12] = system: SF-268 CNS
[13] = system: NCI-H23 lung
[14] = system: OVCAR-8 ovarian
[15] = system: SNB-75 CNS
[16] = system: KM12 colon
[17] = system: OVCAR-5 ovarian
[18] = system: CAKI-1 renal
[19] = system: SF-539 CNS
[20] = system: HS 578T breast
[21] = system: UACC-62 melanoma
[22] = system: HL-60(TB) leukemia
[23] = system: RPMI-8226 leukemia
[24] = system: ACHN renal
[25] = system: K-562 leukemia
[26] = system: UACC-257 melanoma
[27] = system: MOLT-4 leukemia
[28] = system: RXF 393 renal
[29] = system: MDA-MB-435
[30] = system: SW-620 colon
[31] = system: NCI-H226 lung
[32] = system: IGROV1 ovarian
[33] = system: BT-549 breast
[34] = system: M14 melanoma
[35] = system: DU-145 prostate
[36] = system: U251 CNS
[37] = system: SNB-19 CNS
[38] = system: MDA-N
[39] = system: SK-MEL-5 melanoma
[40] = system: EKVX NSCLC
[41] = system: T-47D breast
[42] = system: PC-3 prostate
[43] = system: MDA-MB-231 breast
[44] = system: MCF7 breast
[45] = system: MALME-3M melanoma
[46] = system: UO-31 renal
[47] = system: HCT-15 colon
[48] = system: LOX IMVI melanoma
[49] = system: HCT-116 colon
[50] = system: HT29 colon
[51] = system: A549 NSCLC
[52] = system: HOP-92 NSCLC
[53] = system: OVCAR-4 ovarian
[54] = system: A498 renal
[55] = system: HCC-2998 colon
[56] = system: SR leukemia
[57] = system: NCI/ADR-RES ovarian
[58] = system: 786-0 renal
[59] = system: NCI-H522 lung

Measured: TGI

CC1=Nc2c(N)nc(N)nc2N(C)C1
not listed: [48] | [49] | [50] | [51] | [52] | [53] | [54] | [55] | [56] | [57] | [58] | [59]
> 100 µM: all other assays above

O=C(/C=C/c1ccc(OCc2ccccc2)c(OCc2ccccc2)c1)OCc1ccccc1
not listed: [8] | [20]
> 100 µM: all other assays above

COc1cc2c(c(OC)c1)C(C)=NC(C)C2 (centres undefined)
not listed: [7] | [10] | [15] | [17] | [28] | [36] | [52] | [53] | [57]
> 100 µM: all other assays above
